Here are results for 3 molecules from patent US8158820B2, “Compounds” (AstraZeneca AB, priority 2003, dated 2012).

This test addresses T1, CRTh2 (Homo sapiens, UniProt Q9Y5Y4).
T1 construct: expressed in transfected cells; host or cells: HEK cells (stably transfected, geneticin selection; membranes prepared)
T1 sequence (Q9Y5Y4 1-395): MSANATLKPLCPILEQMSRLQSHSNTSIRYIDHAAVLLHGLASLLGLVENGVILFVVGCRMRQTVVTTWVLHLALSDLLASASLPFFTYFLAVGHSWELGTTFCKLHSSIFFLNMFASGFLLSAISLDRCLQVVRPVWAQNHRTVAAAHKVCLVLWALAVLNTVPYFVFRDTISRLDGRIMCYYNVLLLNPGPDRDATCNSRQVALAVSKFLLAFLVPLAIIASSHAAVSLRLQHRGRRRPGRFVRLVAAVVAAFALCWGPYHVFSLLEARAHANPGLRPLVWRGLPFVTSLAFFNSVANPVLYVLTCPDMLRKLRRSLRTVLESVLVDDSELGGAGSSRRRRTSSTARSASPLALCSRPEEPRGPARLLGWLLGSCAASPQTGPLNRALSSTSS
Briefly: Ligand Binding Assay ([3H]PGD2, SPA beads, HEK cell membranes). The settings on record: [3H]PGD2 binding to membranes of HEK cells expressing rhCRTh2/Gα16. The procedure: [^3H]PGD2 was purchased from Perkin Elmer Life Sciences with a specific activity of 100-210 Ci/mmol. All other chemicals were of analytical grade.
HEK cells expressing rhCRTh2/Gα16 were routinely maintained in DMEM containing 10% Foetal Bovine Serum (HyClone), 1 mg/ml geneticin, 2 mM L-glutamine and 1% non-essential amino acids. For the preparation of membranes, the adherent transfected HEKcells were grown to confluence in two layer tissue culture factories (Fisher, catalogue number TKT-170-070E). Maximal levels of receptor expression were induced by addition of […] sodium butyrate for the last 18 hours of culture. The adherent cells were washed once with phosphate buffered saline (PBS, 50 ml per cell factory) and detached by the addition of 50 ml per cell factory of ice-cold membrane homogenisation buffer [20 mM HEPES (pH 7.4), 0.1 mM dithiothreitol, 1 mM EDTA, 0.1 mM phenyl methyl sulphonyl fluoride and 100 μg/ml bacitracin]. […] The final pellet was re-suspended in 4 ml of membrane homogenisation buffer per cell factory used and the protein content determined. […]
All assays were performed in Corning clear bottomed, white 96-well NBS plates (Fisher). […] (The optimum coating concentrations were determined for each batch of membranes) The beads were pelleted by centrifugation (800×g for 7 minutes at 4° C.), washed once with assay buffer (50 mM HEPES pH 7.4 containing 5 mM magnesium chloride) and finally re-suspended in assay buffer at a bead concentration of 10 mg/ml.
Each assay contained 20 μl of 6.25 nM [^3H]PGD2, 20 μl membrane saturated SPA beads both in assay buffer and 10 μl of compound solution or 13,14-dihydro-15-keto prostaglandin D2 (DK-PGD2, for determination of non-specific binding, Cayman chemical company). […] The assay plate was incubated at room temperature for 2 hours and counted on a Wallac Microbeta liquid scintillation counter (1 minute per well).

The IC50 is the midpoint of a concentration-inhibition curve. Consider `CS(=O)(=O)c1ccc(-c2cc(Cl)ccc2OCC(=O)O)cc1` [Example 9, {[5-Chloro-4′-(methylsulfonyl)biphenyl-2-yl]oxy}acetic acid], for which the 50% inhibitory concentration (IC50) was 39.8 nM.
The same measure for `CN(c1ncc(-c2cc(Cl)ccc2OCC(=O)O)cn1)S(C)(=O)=O` [Example 25, (4-Chloro-2-{2-[methyl(methylsulfonyl)amino]pyrimidin-5-yl}phenoxy)acetic acid]: 10 nM.
The same measure for `CNS(=O)(=O)c1ccc(-c2cc(C(F)(F)F)ccc2OCC(=O)O)cc1` [Example 133, [[4′-[(Methylamino)sulfonyl]-5-(trifluoromethyl)[1,1′-biphenyl]-2-yl]oxy]-acetic acid]: 6.31 nM.
